Measured values as given in publication PMC7504735, “Enhanced Antigiardial Effect of Omeprazole Analog Benzimidazole Compounds” (Molecules, 2020).

Experiments:
[1] = molecular target: T1, triosephosphate isomerase (TPI) (Giardia intestinalis, UniProt P36186); test: Inactivation of recombinant TPI enzyme with compounds; type: biochemical; settings: for Loss (reduction) of TPI enzyme activity: 500 µM compound, 2 h at 37 °C
T1 construct: His-tag (TEV-cleavable) (cleaved yes); made in house
Protocol: The TPI from G. lamblia was expressed and purified. […] When the culture reached A600 = 0.8, it was induced using 0.4 mM IPTG and incubated overnight at 30 °C with shaking at 180 rpm. After the bacteria were collected by centrifugation (10,000× g, 15 min) and suspended in 40 mL of lysis buffer, pH 8.0 (50 mM Tris, 50 mM NaCl, 5 mM β-mercaptoethanol, and 1 mM phenylmethylsulfonyl fluoride). The bacterial suspension was disrupted by sonication and centrifuged at 9000× g for 1 h at 4 °C. Protein purification was performed by immobilized metal affinity chromatography (IMAC) using a Profinity Ni^2+ charged resin (Bio-Rad) previously reported by Enriquez-Flores et al.. The His-tag sequence was removed from the TIM by incubation with TEVP at a molar ratio of 30:1 (TPI/TEVP) at room temperature for 17 h in digestion buffer, pH 8.0 (50 mM Tris, 0.5 mM ethylene diamine tetraacetic acid (EDTA), and 1 mM dithiothreitol). The enzyme concentration was spectrophotometrically determined at 280 nm, and the enzyme was used immediately.
Enzyme activity of TPI was determined spectrophotometrically as described by monitoring the conversion of glyceraldehyde-3-phosphate (GAP) to dihydroxyacetone phosphate (DHAP). […] The standard reaction mixture contained 1 mM GAP, 0.2 mM NADH, and 0.9 units/mL of α-GDH in TE buffer (100 mM triethanolamine, 10 mM EDTA, pH 7.4). The reaction was initiated by adding 5 ng/mL of TPI to the reaction mixture.
(§1) To determine the inactivation of the TPI enzyme from G. lamblia, we performed inactivation assays of the enzyme in the presence of the synthesized compounds. The compounds’ stock solutions were freshly prepared using 100% dimethyl sulfoxide (DMSO) as the solvent at 25 mM. […] After the incubation period, the enzymatic activity was measured by withdrawing an aliquot of each experimental condition, as described above. The results were expressed in terms of the percentage of activity versus the compound’s concentration.

[2] = molecular target: T1, triosephosphate isomerase (TPI); test: Second-order inactivation constant (k2) of TPI; type: biochemical, Giardia lamblia; settings: read-out: Second-order inactivation constant k2
Protocol: Enzyme activity of TPI was determined spectrophotometrically as described by monitoring the conversion of glyceraldehyde-3-phosphate (GAP) to dihydroxyacetone phosphate (DHAP). Briefly, the conversion of GAP to DHAP using a coupling system with enzyme α-glycerol-3-phosphate dehydrogenase (α-GDH) was determinate by measuring NADH oxidation at 340 nm, at 25 °C. The standard reaction mixture contained 1 mM GAP, 0.2 mM NADH, and 0.9 units/mL of α-GDH in TE buffer (100 mM triethanolamine, 10 mM EDTA, pH 7.4). The reaction was initiated by adding 5 ng/mL of TPI to the reaction mixture.
as §1, with “mM. The inactivation assays were performed by incubating 0.2 mg/mL of the TPI enzyme for 2 h at 37 °C in TE buffer with increasing concentrations of the compounds (0 to 500 μM).” for “mM.”
The second-order rate constants of inactivation were calculated by obtaining the pseudo-first-order rate constant (k1) values at each fixed concentration by fitting them to an exponential decay curve. Then, the k1 values were replotted against the concentrations of each compound; the second-order rate constant value of inactivation was obtained from the slope of these plots.

T1 sequence (P36186 whole entry): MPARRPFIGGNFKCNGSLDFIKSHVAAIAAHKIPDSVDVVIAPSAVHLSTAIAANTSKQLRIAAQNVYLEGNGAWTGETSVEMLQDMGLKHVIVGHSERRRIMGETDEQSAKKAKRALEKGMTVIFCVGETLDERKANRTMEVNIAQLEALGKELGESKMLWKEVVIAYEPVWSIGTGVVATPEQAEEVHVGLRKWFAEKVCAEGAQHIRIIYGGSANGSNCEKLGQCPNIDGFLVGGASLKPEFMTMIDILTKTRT

SMILES	IC50 [1] [µM]	Loss (reduction) of TPI enzyme activity [1] [%]	kinact/KI [2] [M⁻¹ s⁻¹]	Enhancement of TPI inactivation (IC50) with respect to BHO2 [1] [fold]
COc1c(C)cnc(C[S+]([O-])c2nc3ccccc3[nH]2)c1C (centres unmarked) [H-BZM2, 2-[(4-methoxy-3,5-dimethylpyridin-2-yl)methanesulfinyl]-1H-benzimidazole]	37	100	2.3	
Cc1c(OCC(F)(F)F)ccnc1C[S+]([O-])c1nc2ccccc2[nH]1 (centres unmarked) [Lansoprazole, 2-{[3-methyl-4-(2,2,2-trifluoroethoxy)pyridin-2-yl]methanesulfinyl}-1H-benzimidazole, reference compound]	66	100	1.78	
O=[N+]([O-])c1ccc2nc([S+]([O-])Cc3ccccn3)[nH]c2c1 (centres unmarked) [O2N-BZM7, 5-nitro-2-[(pyridin-2-yl)methanesulfinyl]-1H-benzimidazole]	12	100	3.2	5.3
Cc1c(OCC(F)(F)F)ccnc1C[S+]([O-])c1nc2ccc([N+](=O)[O-])cc2[nH]1 (centres unmarked) [O2N-BZM9, 2-{[3-methyl-4-(2,2,2-trifluoroethoxy)pyridin-2-yl]methanesulfinyl}-5-nitro-1H-benzimidazole]	20	100	2.8	3.2
